These results are taken from patent US11701364B2, “Agonists of stimulator of interferon genes sting” (The Scripps Research Institute, priority 2018, dated 2023).

The structures appear in SMILES notation. Like-named read-outs stand apart in the source and are kept apart here.

In assay [1] the target is T1, STING (Stimulator of Interferon Genes) (Homo sapiens, UniProt Q86WV6, G230A/H232R/R293Q/R71H).
T1 construct: host or cells: THP-1-Lucia ISG cells (human monocytic line)
Briefly: ISG-LUC activation assay (ISRE-Luciferase assay in THP-1 Lucia ISG reporter cells). Type of assay: cell-based. The text has this: This has been established using a primary assay involving a human THP-1 cell line carrying an IRF-inducible reporter with 5 copies of the IFN signaling response element. Counter screens, involving alternative reporter constructs, rodent cell-based assays, as well as cGAS and STING knock-out cell lines, are used to eliminate luciferase artifacts and ensure human-rodent cross species reactivity, as well as pathway selectivity. Biochemical assays, involving cGAS enzymatic activity and STING protein binding assays, are used to identify the specific target of identified hits.
THP-1 Lucia ISG cells were resuspended in low-serum growth media (2% FBS) at a density of 5×10^5 cells/ml and treated with test article or vehicle (DMSO). 50 μL of cells were seeded into each well of a 384-well white greiner plates and incubated for 24 hours. To evaluate expression of the luciferase reporter, 30 μl of Quanti-luc (Invivogen) detection reagent was added to each well and luminescence was read using an Envision plate reader (Perkin Elmer) set with an integration time of 0.1 seconds.

In assay [2] the test system is STING knockout cells. Briefly: ISRE-Luciferase reporter activity in STING knockout THP-1 cells (counter screen). Type of assay: cell-based, human. On the procedure: Wild-type and STING KO THP-1 ISRE-Luciferase reporter cells were treated with increasing doses of 2′3′-cGAMP and reporter activity (luminescence) was assessed 48 h after treatment (A). Lack of STING protein expression was confirmed in STING KO THP-1 cells by western blot with gamma-tubulin used as a protein loading control (B). Wild-type and STING KO THP-1 reporter cells were treated with increasing doses of Compound 164 (Cmpd 164) and reporter activity and cell viability were assessed 24 h after treatment (C-D).
We have established a robust platform for identifying non-nucleotide small molecule STING agonists. This has been established using a primary assay involving a human THP-1 cell line carrying an IRF-inducible reporter with 5 copies of the IFN signaling response element. […]
THP-1 Lucia ISG cells were resuspended in low-serum growth media (2% FBS) at a density of 5×10^5 cells/ml and treated with test article or vehicle (DMSO). […] To evaluate expression of the luciferase reporter, 30 μl of Quanti-luc (Invivogen) detection reagent was added to each well and luminescence was read using an Envision plate reader (Perkin Elmer) set with an integration time of 0.1 seconds.
(A reporter such as luciferase makes a cellular process visible.)

Assay [3] concerns cGAS knockout cells. Briefly: Activity in wild-type and cGAS knockout cells (counter screen). Type of assay: cell-based. From the text: We have established a robust platform for identifying non-nucleotide small molecule STING agonists. This has been established using a primary assay involving a human THP-1 cell line carrying an IRF-inducible reporter with 5 copies of the IFN signaling response element. Counter screens, involving alternative reporter constructs, rodent cell-based assays, as well as cGAS and STING knock-out cell lines, are used to eliminate luciferase artifacts and ensure human-rodent cross species reactivity, as well as pathway selectivity. Biochemical assays, involving cGAS enzymatic activity and STING protein binding assays, are used to identify the specific target of identified hits. […] Further evidence is provided by STING protein thermal shift data. A preliminary medicinal chemistry effort, involving the design, synthesis, and testing of ˜100 analogs within the series, has identified key features of the molecule that are required for activity and has led to the identification of derivatives with ˜10-fold improvements in cell-based potency (by for example modulating the substitution pattern on the aniline ring) and ˜50-fold improvement in plasma stability (by modulating the size of the substituent of the ester).
(In general: The purpose of a counterscreen is to sort out artefacts and off-target activity.)

The subject of assay [4] is human PBMCs. Put plainly: Type I IFN protein expression in human PBMCs. The assay is classed as cell-based. The following applies: compared with 2′-3′ cGAMP.
For assay [5], the system named is interferon-stimulated gene signature. Put plainly: Interferon-stimulated gene signature expression (qPCR). The assay is classed as cell-based, human. The following applies: relevant cell types. As for the experimental part:
Wild-type and STING KO THP-1 cells were stimulated with poly(dA:dT), a known activator of both RIG-I and cGAS-dependent signaling cascades, and downstream target gene expression was assessed 48 h later by qPCR (A). Wild-type and STING KO THP-1 cells were stimulated with 2′3′-cGAMP or Cmpd 164 at the indicated doses and activation of type I interferon signaling was assessed by gene expression analysis of IFNB1 (B) and interferon stimulated genes, IFIT3 (C) and CXCL10 (D).
We have established a robust platform for identifying non-nucleotide small molecule STING agonists. This has been established using a primary assay involving a human THP-1 cell line carrying an IRF-inducible reporter with 5 copies of the IFN signaling response element. Counter screens, involving alternative reporter constructs, rodent cell-based assays, as well as cGAS and STING knock-out cell lines, are used to eliminate luciferase artifacts and ensure human-rodent cross species reactivity, as well as pathway selectivity. […]
THP-1 cells were resuspended in low-serum growth media at a density of 5×10^5 cells/ml and treated with test article or vehicle (DMSO). […] Gene expression was assessed using Taqman primers and probes listed in Table 4 with the Taqman Universal Mix II (cat. no. 4440038, ThermoFisher) following manufacturer's instructions. […]
In general terms: Real-time PCR tracks product formation cycle by cycle.

Where [6] appears, read: THP-1 Lucia ISG cells, 24 hours, luciferase reporter, read-out: ISG-LUC activation assay (EC50).

T1 sequence (Q86WV6 whole entry R71H/G230A/H232R/R293Q): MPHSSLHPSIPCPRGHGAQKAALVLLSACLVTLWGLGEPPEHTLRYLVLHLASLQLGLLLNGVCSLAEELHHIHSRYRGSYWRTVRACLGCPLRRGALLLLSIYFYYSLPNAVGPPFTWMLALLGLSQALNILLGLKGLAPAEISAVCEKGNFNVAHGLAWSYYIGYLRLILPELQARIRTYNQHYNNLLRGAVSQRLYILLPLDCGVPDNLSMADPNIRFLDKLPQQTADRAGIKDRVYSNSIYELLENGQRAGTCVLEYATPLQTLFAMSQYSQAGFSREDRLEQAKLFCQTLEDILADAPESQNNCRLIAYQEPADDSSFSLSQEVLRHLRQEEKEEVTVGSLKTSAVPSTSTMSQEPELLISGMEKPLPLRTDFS

`O=C(Nc1ccc(Br)cc1C(O)(C(F)(F)F)C(F)(F)F)c1ccc(-n2ccnc2)nn1` [Compound 164]: the EC50 in assay [1] (setting [6]) is more than 20000 nM; in assay [1] (primary assay, human THP-1 IRF-inducible reporter, read-out: EC50), approximately 1000 nM. Moreover, the “activity in STING knockout cells” value in assay [2] is “lack of activity”. For the same molecule, the “activity in wild-type and cGAS knockout cells” value in assay [3] is “observed activity”. Besides, in assay [4], the “type I IFN protein expression, efficacy” value is recorded as “comparable to that observed for 2′-3′ cGAMP”. The “interferon-stimulated gene signature expression” value in assay [5] is “induces interferon-stimulated gene signature expression”.

For `COc1ccc2c(=O)oc(-c3ccc(-n4ccnc4)nn3)nc2c1` [Compound 38], the EC50 in assay [1] (setting [6]) was 485 nM. With `O=c1oc(-c2ccc(-n3ccnc3)nn2)nc2cc3c(cc12)OCCO3` [Compound 139], in assay [1] (setting [6]), the EC50 was 2520 nM. With `COC(=O)c1cc(C(F)(F)F)cc(F)c1NC(=O)c1ccc(-n2ccnc2)nn1` [Compound 48], in assay [1] (setting [6]), the EC50 worked out at 475 nM.

`COC(=O)c1ccc(F)c(F)c1NC(=O)c1ccc(-n2ccnc2)nn1` [Compound 18]: in assay [1] (setting [6]), the EC50 came to 568 nM. The same measure, in the same setting: next, `Cc1cc2nc(-c3ccc(-n4ccnc4)nn3)oc(=O)c2cc1F` [Compound 39]: 30.8 nM. Still for that read-out and setting: the value for `COC(=O)c1cc(Cl)cc(C)c1NC(=O)c1ccc(-n2ccnc2)nn1` [Compound 97] was approximately 2490 nM; that for `O=C(Nc1cc(F)c(F)cc1C(=O)NCCO)c1ccc(-n2ccnc2)nn1` [Compound 122] was 7960 nM.

Regarding `COC(=O)c1cc2[nH]ncc2cc1NC(=O)c1ccc(-n2ccnc2)nn1` [Compound 117], the EC50 in assay [1] (setting [6]) is approximately 2570 nM. As to `Cc1cc(NC(=O)c2ccc(-n3ccnc3)nn2)c(C(=O)O)cc1F` [Compound 81], the EC50 in assay [1] (setting [6]) was 2740 nM. Turning to `Cc1ccc2nc(-c3ccc(-n4ccnc4)nn3)oc(=O)c2n1` [Compound 137], the EC50 in assay [1] (setting [6]) came to 9330 nM. Consider `COC(=O)c1cc(F)c(C)cc1NC(=O)c1ccc(-n2ccnc2)nn1` [Compound 21], for which the EC50 in assay [1] (setting [6]) was determined as 90.4 nM. The same measure, in the same setting: next, `COC(=O)c1cc2ccccc2cc1NC(=O)c1ccc(-n2ccnc2)nn1` [Compound 23]: 56.1 nM; `N#Cc1ccc2c(=O)oc(-c3ccc(-n4ccnc4)nn3)nc2c1` [Compound 37]: 166 nM; `O=c1oc(-c2ccc(-n3ccnc3)nn2)nc2ccc(C(F)(F)F)nc12` [Compound 140]: approximately 25100 nM. `CCOC(=O)C1=C(NC(=O)c2ccc(-n3ccnc3)nn2)C2CCC1O2` (stereo not drawn) [Compound 155]: the EC50 in assay [1] (setting [6]) is more than 50000 nM. Still for that read-out and setting: next, `COc1cc(C(=O)O)c(NC(=O)c2ccc(-n3ccnc3)nn2)cc1F` [Compound 170]: 11000 nM; `COC(=O)c1cc(C)c(C)cc1NC(=O)c1ccc(-n2ccnc2)nn1` [Compound 11]: 103 nM.

On to `CCN(CC)CCOC(=O)c1cc(F)c(F)cc1NC(=O)c1ccc(-n2ccnc2)nn1` [Compound 68], for which, in assay [1] (setting [6]), the EC50 came to 1810 nM. Still for that read-out and setting: next, `O=c1[nH]c(-c2ccc(-n3ccnc3)nn2)nc2cc(F)c(F)cc12` [Compound 126]: 1120 nM; `O=C(Nc1cc(C2CC2)c(F)cc1C(=O)O)c1ccc(-n2ccnc2)nn1` [Compound 174]: 10000 nM; `O=C(Nc1ccccc1C(O)(C(F)(F)F)C(F)(F)F)c1ccc(-n2ccnc2)nn1` [Compound 1]: 593 nM. The same measure, in the same setting: the value for `O=C(Nc1ccccc1C(=O)OC1CCC1)c1ccc(-n2ccnc2)nn1` [Compound 4] was 2070 nM; that for `Cc1cc(NC(=O)c2ccc(-n3ccnc3)nn2)c(C(N)=O)cc1C` [Compound 125] was 9620 nM; that for `COC(=O)C1=C(NC(=O)c2ccc(-n3ccnc3)nn2)CC(C)(C)CC1` [Compound 127] was 7300 nM. The same measure, in the same setting: the value for `Cn1ncc2cc(C(=O)O)c(NC(=O)c3ccc(-n4ccnc4)nn3)cc21` [Compound 167] was 14900 nM.

On to `COC(=O)c1cc(F)ccc1NC(=O)c1ccc(-n2ccnc2)nn1` [Compound 13], for which, in assay [1] (setting [6]), the EC50 came to 249 nM. On the same count and under the same terms, next, `COC(=O)c1cc2c(cc1NC(=O)c1ccc(-n3ccnc3)nn1)CCCC2` [Compound 114]: 4350 nM.

In general, EC50 refers to the midpoint of the concentration-response curve.
